Data as given in patent US12491262B2, “Gene delivery agents” (TIBA Biotech LLC, priority 2023, dated 2025).

Tests used:
[1] = Encapsulation efficiency by Ribogreen assay; format: physicochemical; settings: formulated at pH 5
Description: As used herein, “encapsulated” can refer to a nanoparticle that provides an active agent or therapeutic agent, such as a nucleic acid (e.g., a messenger RNA), with full encapsulation, partial encapsulation, or both. In a preferred embodiment, the nucleic acid is fully encapsulated in the nanoparticle. In the context of nucleic acid therapeutic agents, full encapsulation may be determined by a Ribogreen® assay. RiboGreen® is an ultra-sensitive fluorescent nucleic acid stain for quantitating oligonucleotides and single-stranded DNA or RNA in solution (available from Thermo Fisher Scientific—US).
Nanoparticles containing compound 3:DOPE:cholesterol:DMG-PEG2k at molar ratios of 1:0.25:0.9625:0.0375 and RNA at two different weight ratios were formulated using NanoAssemblr Benchtop (Precision NanoSystems Inc, Vancouver, BC, Canada)). RNA was diluted with DNase/RNase-Free, endotoxin free distilled water and sterile acetate buffer to a final desired pH. Total flow rate was maintained at 8 mL per min at a 3:1 ratio of aqueous to organic phase for formulating on the Benchtop. Using glassware depyrogenated by heating at 250° C. for 24 h, nanoparticles were dialyzed against sterile, endotoxin-free PBS using 20,000 molecular weight cutoff dialysis. Dialyzed nanoparticles were sterile filtered using 0.2 micron poly(ether sulfone) filters and characterized with a Zetasizer NanoZS machine (Malvern). The size distributions were characterized by a single peak with a low polydispersity index. Encapsulation efficiency was measured to be 95% for the nanoparticle composition containing compound 3 and SEAP mRNA or SEAP replicon RNA (formulated at pH 5) using Ribogreen® assay (Geall et al. 10.1073/pnas.1209367109 which is incorporated herein by reference as if fully set forth).
(§1) Nanoparticles containing the compound 8:cholesterol:DOPE:DMG-PEG2k at molar ratios of 1:2:1.5:0.0375 were formulated using NanoAssemblr Benchtop (Precision NanoSystems Inc, Vancouver, BC, Canada)). RNA was diluted with Dnase/Rnase-Free, endotoxin free distilled water and sterile citrate buffer to a final desired pH. Total flow rate was maintained at 8 mL per min at a 3:1 ratio of aqueous to organic phase for formulating on the Benchtop. Using glassware depyrogenated by heating at 250° C. for 24 hours, nanoparticles were dialyzed against sterile, endotoxin-free PBS using 20,000 molecular weight cutoff dialysis. Dialyzed nanoparticles were sterile filtered using 0.2 micron poly(ether sulfone) filters and characterized with a Zetasizer NanoZS machine (Malvern). The size distributions were characterized by a single peak with a low polydispersity index. Encapsulation efficiency was measured to be 89% for the nanoparticle composition containing compound 8 and Replicon SEAP RNA (formulated at pH 5) using Ribogreen® assay.
as §1, with “8 or compound 9:cholesterol:DOPE DMG-PEG2k” for “8:cholesterol:DOPE:DMG-PEG2k”, “7,000” for “20,000”, “81%” for “89%”, “Luciferase Ψ mRNA” for “Replicon SEAP RNA”, “assay. Encapsulation efficiency was measured to be 82% for the nanoparticle composition containing compound 9 and Luciferase Ψ mRNA (formulated at pH 5). […]” for “assay.”

SEAP expression = test: In vivo SEAP production in mouse serum (Phospha-Light assay); set-up: species or system mice
[2] = Hydrodynamic size measurement by dynamic light scattering (Zetasizer); format: physicochemical; settings: for Z average: DOPE, DMG-PEG 2000 and SEAP Replicon RNA; for Z average (size of strongest intensity): FIG. 4; for Z average (size of strongest intensity) / polydispersity index: compound 8 and SEAP RNA, hand mixing
Method: Additionally, with reference to FIG. 2, nanoparticles were formulated by mixing 21 μl of an ethanol phase containing compound 5 or compound 6, cholesterol, DOPE, and DMG PEG 2000 (PEG-lipid, Avanti Polar Lipids) at molar ratio of 1:2:1.5:0.0375 with 63 μl of SEAP Replicon RNA encoding secreted embryonic alkaline phosphatase (diluted with UltraPure, DNase/RNase-free, endotoxin-free distilled water (Invitrogen) and sterile 100 mM (pH 5) citrate buffer to a final citrate concentration of 10 mM. The resulting nanoparticles contained 4:1 mass ratio of compound 5 or compound 6 to RNA. Formulations were diluted 100-fold for analysis of particle size distribution, Z-average, and derived count rate using a Zetasizer Nano ZS (Malvern Panalytical).
The “Z average” of the nanoparticle composition containing compound 5 or compound 6, cholesterol, DOPE, DMG-PEG 2000 and SEAP Replicon RNA as function of size was determined by dynamic light scattering (DLS). […] Referring to FIG. 2, the size distributions were characterized with a low polydispersity index, indicating a relatively monodisperse size.
Reference to FIG. 4, nanoparticles were formulated by mixing 21 μl of an ethanol phase containing Compound 8, cholesterol, DOPE, and DMG PEG 2000 (PEG-lipid, Avanti Polar Lipids) at molar ratio of 1:2:1.5:0.0375 with 63 μl of Replicon RNA encoding secreted embryonic alkaline phosphatase (SEAP) diluted with UltraPure, DNase/RNase-free, endotoxin-free distilled water (Invitrogen) and sterile 100 mM (pH 5 or pH3) citrate buffer to a final citrate concentration of 10 mM. The derived NPs were characterized with a Zetasizer NanoZS machine (Malvern). The size distributions were characterized by a single peak with a low polydispersity index.
FIG. 4 illustrates distribution of the nanoparticle composition measured as the intensity (Z average) based on size (d.nm; diameter in nm) of the nanoparticles. Referring to FIG. 4, the “Z average” of the nanoparticle composition containing compound 8 and SEAP RNA as function of size was determined by dynamic light scattering (DLS). […] The polydispersity index of nanoparticles formulated with buffer pH 3 and pH 5 is 0.13 and 0.11, respectively, indicating a relatively monodisperse size.
as §1
The “Z average” of the nanoparticle composition containing compound 8, cholesterol, DOPE, DMG-PEG 2000 and SEAP Replicon RNA as function of size was determined by dynamic light scattering (DLS). […] Referring to Table 2, the size distributions were characterized with a low polydispersity index, indicating a relatively monodisperse size.
Nanoparticles containing the compound 8 or compound 9:cholesterol:DOPE DMG-PEG2k at molar ratios of 1:2:1.5:0.0375 were formulated using NanoAssemblr Benchtop (Precision NanoSystems Inc, Vancouver, BC, Canada)). RNA was diluted with Dnase/Rnase-Free, endotoxin free distilled water and sterile citrate buffer to a final desired pH. […]

[3] = as above; format: physicochemical; settings: cholesterol
[4] = cholesterol:DOPE:DMG-PEG2k nanoparticles with Luciferase Ψ mRNA
[5] = Table 3, DOPE, DMG-PEG 2000 and Luciferase Ψ mRNA
[6] = cholesterol:DSPC:DMG-PEG2k 50:38.5:10:1.5 nanoparticles with SEAP Ψ mRNA
[7] = FIG. 7, DSPC, DMG-PEG 2000 and SEAP Ψ mRNA

## CCCCCCCCCCSSCCCCCCOC(=O)CCN(CCCCN(C)CCCNC(=O)CCCCCCC/C=C\C[C@@H](O)CCCCCC)CCC(=O)OCCCCCCSSCCCCCCCCCC [Compound 3]
[1]; nanoparticles compound 3:DOPE:cholesterol:DMG-PEG2k with SEAP mRNA or SEAP replicon RNA
  Encapsulation efficiency: 95%
SEAP expression; FIG. 1, SEAP replicon RNA and SEAP mRNA formulated with compound 3
  SEAP protein production in vivo: resulted in SEAP protein production
SEAP expression; formulations with 10:1 compound 3:RNA, mice, 2 μg SEAP mRNA or SEAP replicon RNA, serum 16 hrs later
  SEAP expression in mouse serum, 10:1 versus 15:1 compound 3:RNA: higher expression

## CCCCCCCCCCCCn1cc(COC(=O)CCN(CCCN(C)CCCNCCCO[C@H]2O[C@@H](COC(C)=O)[C@H](OC(C)=O)[C@@H](OC(C)=O)[C@@H]2OC(C)=O)CCC(=O)OCc2cn(CCCCCCCCCCCC)nn2)nn1 [Compound 6]
[2]; FIG. 2, hand mixing with cholesterol, pH 5 citrate, 4:1 mass ratio to RNA
  Z average: 122.0 nm·days

## CCCCCCCCCCCCCCCCOC(=O)CCN(CCCCN(C)CCCNCCCOP(=O)(OCC)OCC)CCC(=O)OCCCCCCCCCCCCCCCC [Compound 8]
[1]; [4]
  Encapsulation efficiency: 81%
[1]; compound 8:cholesterol:DOPE:DMG-PEG2k with Replicon SEAP RNA, microfluidic mixing
  Encapsulation efficiency: 89%
[3]; [5]
  Z average: 76.5 nm·days
[2]; buffer pH 3
  Z average (size of strongest intensity): 133.7 nm·days
  polydispersity index: 0.13
[2]; buffer pH 5
  Z average (size of strongest intensity): 191.3 nm·days
  polydispersity index: 0.11
[2]; Table 2, compound 8, cholesterol, microfluidic mixing
  Z average: 78.2 nm·days

## CCCCCCCCCCCCCCCCOC(=O)CCN(CCCCN(C)CCCNCCCO[C@@H]1O[C@H](COC(C)=O)[C@@H](OC(C)=O)[C@H](OC(C)=O)[C@H]1OC(C)=O)CCC(=O)OCCCCCCCCCCCCCCCC [Compound 9]
[1]; [4]
  Encapsulation efficiency: 82%
[3]; [5]
  Z average: 80.9 nm·days

## CCCCCCCCCCCCOC(=O)CCSSCCC(=O)NCCCN(C)CCCN(CCC(=O)OCCCCCCCC)CCC(=O)OCCCCCCCC [Compound 13]
[1]; [6]
  Encapsulation efficiency: 89%
SEAP expression; FIG. 8, BALB/c mice, approximately 2 μg, SEAP Ψ mRNA nanoparticles formulated at pH 5
  SEAP expression in mice serum, compound 13 compared to compound 18: better SEAP expression
[3]; [7]
  Z average: 129.5 nm·days

## CCCCCCCCCCCCOC(=O)CCCCCCC(=O)NCCCN(C)CCCN(CCC(=O)OCCCCCCCC)CCC(=O)OCCCCCCCC [Compound 18]
[1]; [6]
  Encapsulation efficiency: 84%
[3]; [7]
  Z average: 74.8 nm·days
